Molecules are shown by their SMILES. Where a name gives a salt, the structure may show the parent alone. Read-outs that look alike come from different tables or passages of the source. A value given as a limit tells only on which side of the number the result lay.

In one test the test system is cytidine deaminase. Particulars: 37° C.; for yield of deaminated product (HPLC, crude mixture): 5 hours. Here is the method:
The reaction was performed at 37° C. during […] and stopped with HCl. Then, the crude reaction was filtered through a 10 KDa membrane, and a portion was diluted and analyzed by HPLC under UV-DAD (ultraviolet-diode array detection). Product identification was performed by comparison to a standard sample.
After 5 hours, the reaction was stopped with HCl and a portion of the reaction was diluted and filtered for HPLC and MS analysis.

The target in a further test is T1, adenosine deaminase (Homo sapiens, UniProt P00813).
T1 sequence (P00813 1-363): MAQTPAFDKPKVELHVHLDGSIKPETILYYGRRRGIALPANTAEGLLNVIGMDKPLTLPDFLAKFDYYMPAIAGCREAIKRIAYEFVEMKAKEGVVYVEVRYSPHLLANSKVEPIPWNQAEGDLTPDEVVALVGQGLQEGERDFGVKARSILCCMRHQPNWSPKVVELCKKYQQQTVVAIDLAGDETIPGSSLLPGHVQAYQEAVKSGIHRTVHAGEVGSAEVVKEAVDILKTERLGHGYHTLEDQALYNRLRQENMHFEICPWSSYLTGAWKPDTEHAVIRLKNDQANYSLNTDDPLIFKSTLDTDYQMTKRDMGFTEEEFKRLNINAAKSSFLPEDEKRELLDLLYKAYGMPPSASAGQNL
Particulars: commercially available purified enzyme, analytical conditions; cited from earlier work.

Where [1] appears, read: 100 mM substrate, KH2PO4 100 mM pH 7.0, 36-240 AU cytidine deaminase.
The mark [2] stands for this setting: 20 mM substrate, KH2PO4 100 mM pH 7.0, 90 AU cytidine deaminase.

In the case of `COC(=O)[C@@H](NP(=O)(OC[C@H]1O[C@@H](n2ccc(N)nc2=O)C(F)(F)[C@@H]1O)Oc1ccccc1)C(C)C` (stereo partly drawn) [compound 17, methyl ((((2R,3R,5R)-5-(4-amino-2-oxopyrimidin-1 (2H)-yl)-4,4-difluoro-3-hydroxytetrahydrofuran-2-yl)methoxy)(phenoxy)phosphoryl)-L-valinate], the “yield of deaminated product (HPLC, crude mixture)” value (from here on “yield … (HPLC, crude mixture)”) in the test with cytidine deaminase (setting [1]) was “quantitative yield”. As for `CC(C)OC(=O)[C@H](C)NP(=O)(OC[C@H]1O[C@@H](n2ccc(N)nc2=O)[C@H](O)[C@@H]1O)Oc1ccccc1` (stereo partly drawn) [compound 14, isopropyl ((((2R,3S,4R,5R)-5-(4-amino-2-oxopyrimidin-1(2H)-yl)-3,4-dihydroxytetrahydrofuran-2-yl)methoxy)(phenoxy)phosphoryl)-L-alaninate hydrochloride], the “yield … (HPLC, crude mixture)” value in the test on cytidine deaminase (setting [2]) is “quantitatively”. With `Nc1ncnc2c1ncn2[C@H]1C[C@H](O)[C@@H](CO)O1` [deoxyadenosine], the deamination yield at adenosine deaminase is 59%. With `COC(=O)[C@H](CC(C)C)NP(=O)(OC[C@H]1O[C@@H](n2ccc(N)nc2=O)[C@H](O)[C@@H]1O)Oc1ccccc1` (stereo partly drawn) [compound 10, methyl ((((2R,3S,4R,5R)-5-(4-amino-2-oxopyrimidin-1(2H)-yl)-3,4-dihydroxytetrahydrofuran-2-yl)methoxy)(phenoxy)phosphoryl)-L-leucinate hydrochloride], the “yield … (HPLC, crude mixture)” value in the test with cytidine deaminase (setting [2]) is listed as > 70%.

For the molecule `CC(C)OC(=O)[C@H](C)NP(=O)(OC[C@H]1O[C@@H](n2ccc(N)nc2=O)C(F)(F)[C@@H]1O)Oc1ccccc1` (stereo partly drawn) [compound 18, isopropyl ((((2R,3R,5R)-5-(4-amino-2-oxopyrimidin-1 (2H)-yl)-4,4-difluoro-3-hydroxytetrahydrofuran-2-yl)methoxy)(phenoxy)phosphoryl)-L-alaninate], the “yield … (HPLC, crude mixture)” value in the test with cytidine deaminase (setting [1]) was “quantitative yield”. On to `COC(=O)[C@H](C)NP(=O)(OC[C@H]1O[C@@H](n2ccc(N)nc2=O)[C@H](O)[C@@H]1O)Oc1ccccc1.Cl` (stereo partly drawn) [compound 14-Me, methyl ((((2R,3S,4R,5R)-5-(4-amino-2-oxopyrimidin-1 (2H)-yl)-3,4-dihydroxytetrahydrofuran-2-yl)methoxy)(phenoxy)phosphoryl)-L-alaninate hydrochloride], for which the “yield … (HPLC, crude mixture)” value in the test on cytidine deaminase (setting [2]) was > 80%.

Turning to `COC(=O)[C@H](CC(C)C)NP(=O)(OC[C@H]1O[C@@H](n2ccc(N)nc2=O)C(F)(F)[C@@H]1O)Oc1ccccc1` (stereo partly drawn) [compound 16, methyl ((((2R,3R,5R)-5-(4-amino-2-oxopyrimidin-1(2H)-yl)-4,4-difluoro-3-hydroxytetrahydrofuran-2-yl)methoxy)(phenoxy)phosphoryl)-L-leucinate], the “yield … (HPLC, crude mixture)” value with cytidine deaminase (setting [1]) is on record as “quantitatively”.

For `COC(=O)[C@@H](NP(=O)(OC[C@H]1O[C@@H](n2ccc(N)nc2=O)[C@H](O)[C@@H]1O)Oc1ccccc1)C(C)C` (stereo partly drawn) [compound 12, methyl ((((2R,3S,4R,5R)-5-(4-amino-2-oxopyrimidin-1 (2H)-yl)-3,4-dihydroxytetrahydrofuran-2-yl)methoxy)(phenoxy)phosphoryl)-L-valinate hydrochloride], the “yield … (HPLC, crude mixture)” value with cytidine deaminase (setting [2]) was > 70%. With `COC(=O)[C@@H](NP(=O)(OC[C@H]1O[C@@H](n2cnc(N)nc2=O)C[C@@H]1O)Oc1ccccc1)C(C)C` (stereo partly drawn) [compound 21, methyl ((((2R,3S,5R)-5-(4-amino-2-oxo-1,3,5-triazin-1(2H)-yl)-3-hydroxytetrahydrofuran-2-yl)methoxy)(phenoxy)phosphoryl)-L-valinate], the “yield of deaminated product (HPLC)” value in the test on cytidine deaminase (pH 6, 13 mM substrate, KH2PO4 100 mM, 66 AU cytidine deaminase, 24 hours) was “higher than 90%”. Further, the “conversion into deaminated product” value was “quantitatively” with cytidine deaminase (pH 7, 13 mM substrate, KH2PO4 100 mM, 66 AU cytidine deaminase, 24 hours) and “quantitatively” with cytidine deaminase (pH 8, 13 mM substrate, KH2PO4 100 mM, 66 AU cytidine deaminase, 24 hours).
